Values quoted from earlier work, collected in US10596120B2, “Pharmaceutical compositions” (Boehringer Ingelheim International GmbH, priority 2011, dated 2020).

Settings: metformin on its own, in the diabetic

Structure (SMILES): CN(C)C(=N)N=C(N)N [metformin]
- average improvement in the HbA1c value: 1.0-1.5%
